Measurements taken from patent publication US10548905B2, “Amorphous onapristone compositions and methods of making the same” (CONTEXT BIOPHARMA INC., priority 2015, dated 2020).

Tests used:
[1] = Physical stability of amorphous form on storage under ambient conditions, followed by XRPD; assay type: physicochemical
Source text: (§1) The physical form of onapristone, either as the bulk drug substance or in its compositions, was established using X-ray powder diffraction (XRPD). XRPD patterns were obtained using a Rigaku MiniFlex powder diffraction system, equipped with a horizontal goniometer operating in the θ/2θ mode. The X-ray source was nickel-filtered Kα emission of copper (1.54184 Å). Samples were packed into the sample holder using a back-fill procedure, and were scanned over the range of 3.5 to 40 degrees 2θ at a scan rate of 0.5 degrees 2θ/min. Using a data acquisition rate of 1 point per second, these scanning parameters equate to a step size of 0.0084 degrees 2θ. Calibration of the diffractometer system was effected using purified talc as a reference material. The intensity scale for all diffraction patterns was normalized so that the relative intensity of the most intense peak in the pattern equaled 100%.
After the initial characterization, the substance was placed in a glass vial, and stored under ambient conditions (temperature of 22-24° C.). The product was subsequently obtained after storage under ambient conditions for 25 weeks, 43 weeks, and 16.5 months.
XRPD patterns of these samples were obtained when initially received and after 12 weeks, 20 weeks, 36 weeks, and 15 months had elapsed. The XRPD patterns obtained for sample SSF-PDS-027-001A are collected in FIG. 2, while the XRPD patterns obtained for sample SSF-PDS-027-001B are collected in FIG. 3.

[2] = Physical form by X-ray powder diffraction (XRPD); assay type: physicochemical; conditions: no sharp scattering peaks attributable to crystalline onapristone
Source text: In one aspect, amorphous onapristone is formed by adding onapristone to water, dissolving the onapristone in the water by adding one equivalent of an acid solution, and subsequently increasing the pH of the solution by the addition of one equivalent of base. At the end of this process, an amorphous precipitate is formed which may be isolated and characterized. […] The presence of a crystalline substance is indicated by the presence of sharp peaks (i.e., those whose width at half-height is in the range of 0.3 to 0.5 degrees 2θ) in an XRPD pattern, while the XRPD pattern of an amorphous substance is characterized by the presence of broad scattering peaks (i.e., those whose width at half-height is in the range of at least 8 to 12 degrees 2θ).
as §1, with “Calibration of the diffractometer system was effected using purified talc as a reference material. The intensity scale for all diffraction patterns was normalized so that the relative intensity of the most intense peak in the pattern equaled 100%.” left out

storage period over which the drug substance remained amorphous ([1]; stored under ambient conditions (22-24° C.)) [months]	storage period over which the drug substance remained amorphous ([1]; stored under ambient conditions (22-24° C.), listed as pH-cycled product)	physical form of onapristone by XRPD as initially prepared [2]	storage period over which the drug substance remained amorphous ([1]; stored under ambient conditions)	SMILES
≥ 16.5	at least 16.5 months	amorphous	–	CN(C)c1ccc([C@H]2C[C@]3(C)[C@@H](CC[C@]3(O)CCCO)[C@@H]3CCC4=CC(=O)CCC4=C32)cc1 [pH-cycled onapristone]
–	–	–	at least 29 weeks	CN(C)c1ccc([C@H]2C[C@]3(C)[C@@H](CC[C@]3(O)CCCO)[C@@H]3CCC4=CC(=O)CCC4=C32)cc1 [solvation-desolvation product]
